The text below walks through data of patent publication US5604226A, “Pyridazinone derivatives, processes for production thereof and use thereof” (Nihon Nohyaku Co., Ltd., priority 1993, dated 1997).

The structures appear in SMILES notation.

The test system of assay [1] is Platelet aggregation (ADP, rabbit platelet rich plasma). Nature of the assay: Platelet aggregation inhibition in rabbit PRP, ADP-induced, Born's turbidimetry (Experiment 1). Format: cell-based. Conditions: Oryctolagus cuniculus, 0.05 h, ADP 2 to 4 μM, 3 min incubation, read-out: Aggregation Inhibition Rate; for inhibition at 1 µg/mL: 10^-6 g/ml; for inhibition at 0.1 µg/mL: 10^-7 g/ml. The procedure:
Blood was collected from the ear vein of rabbit, together with 1/10 volume sodium citrate. Centrifugation at 1,200 rpm for 10 minutes gave the supernatant which was made platelet rich plasma (PRP). The blood was further centrifuged at 3,000 rpm for 10 minutes to give platelet poor plasma (PPP). The platelet count of PRP was adjusted to 300,000/μl with PPP, which was provided for the test. Platelet aggregation was determined with aggregometer (HEMATRACERVI, Niko Bioscience Co.) based on Born's turbidimetry. That is, 200 μl of PRP was charged in a cell and 1 μl of a drug solution dissolved in dimethylsulfoxide was added thereto. After incubation for 3 minutes, ADP was added in a concentration of 2 to 4 μM to cause aggregation. Change in transmittance in the cell was then monitored. The results are shown in Table 2, in terms of aggregation inhibition rate which was determined by comparing a transmittance of control with that obtained at the maximum aggregation on an aggregation curve when the transmittance of PRP was made 0% and the transmittance of PPP was made 100%.

Assay [2] relates to thrombocytopenia in mice (collagen-induced, platelet count). Nature of the assay: Activity of preventing thrombocytopenia in mice, collagen i.v. (Experiment 3). Type of assay: in vivo, male ddY mice. The note with it: Mus musculus, 3.0 mg/kg oral, 1 hour before collagen 0.5 mg/kg i.v., * p = 5%, ** p = 1%, *** p = 0.1%, read-out: Average Inhibition Rate (platelet count; normal mouse 100, control mouse 0). The method, then:
Activity of preventing thrombocytopenia in mice:
Collagen (Holm Co.) diluted with physiological saline was intravenously given through the vein to male ddY mice of 6 weeks old, weighing 28-31 g, which had been fasted for 4-5 hours, in a dose of 0.5 mg/kg. Five minutes after, blood was collected from the lower thigh vein under pentobarbital anesthesia through a plastic syringe treated with heparin containing 3.8% sodium citrate. The drug was orally given an hour before the collagen administration. The platelet count was measured with Sysmex E-4000. The inhibition activity is shown in terms of percentage of the platelet count when the platelet count of normal mouse was made 100 and the platelet count of control mouse was made 0.

A word on the inhibition: it is how much of the control response was suppressed. In the case of `O=c1[nH]nc(OCCCSc2ccccc2)c(NCc2cccnc2)c1Cl` [Compound 2, 4-chloro-6-[3-(phenylthio)propyloxy]-5-(3-picolylamino)-3(2H)-pyridazinone], in assay [1], the inhibition at 1 µg/mL worked out at 100% and the inhibition at 0.1 µg/mL was determined as 27%. In the case of `O=c1[nH]nc(OCCSc2ccccc2)c(NCc2cccnc2)c1Cl` [Compound 1], in assay [1], the inhibition at 1 µg/mL was 100% and the inhibition at 0.1 µg/mL is 37%. Turning to `COc1ccc(CNc2c(OCCOc3ccccc3)n[nH]c(=O)c2Br)cc1OC` [Comparative Compound B, reference compound], the inhibition at 0.1 µg/mL in assay [1] came to 79%. Regarding `COc1ccc(SCCOc2n[nH]c(=O)c(Cl)c2NCc2cccnc2)cc1` [Compound 34], in assay [1], the inhibition at 1 µg/mL was determined as 100% and the inhibition at 0.1 µg/mL is 64%. For the molecule `COc1ccc(CNc2c(OCCSc3ccc(F)cc3)n[nH]c(=O)c2Br)cc1OC` [Compound 14, 4-bromo-5-(3,4-dimethoxyphenylmethylamino)-6-[2-(4fluorophenylthio)ethyloxy]-3(2H)-pyridazinone], the inhibition at 0.1 µg/mL in assay [1] was determined as 100%. For the same molecule, the inhibition in vivo at 3 mg/kg in assay [2] was found to be 23.3%. In the case of `COc1ccc(CNc2c(OCCSc3ccccc3)n[nH]c(=O)c2Br)cc1OC` [Compound 6, 4-bromo-5-(3,4-dimethoxyphenylmethyl-amino)-6-[2-(phenylthio)ethyloxy]-3(2H)-pyridazinone], in assay [1], the inhibition at 1 µg/mL came to 100% and the inhibition at 0.1 µg/mL turned out to be 100%. In addition, in assay [2], the inhibition in vivo at 3 mg/kg worked out at 33%. For `COc1ccc(CNc2c(OCC[S+]([O-])c3ccc([N+](=O)[O-])cc3)n[nH]c(=O)c2Br)cc1OC` (stereo not drawn) [Compound 40], in assay [2], the inhibition in vivo at 3 mg/kg stood at 40.8%.

For `COc1ccc(CNc2c(OCC[S+]([O-])c3ccc(F)cc3)n[nH]c(=O)c2Br)cc1OC` (stereo not drawn) [Compound 15, 4-bromo-5-(3,4-dimethoxyphenylmethyl-amino)-6-[2-(4-fluorophenylsulfinyl)ethyloxy]-3(2H)-pyridazinone], in assay [1], the inhibition at 0.1 µg/mL was found to be 100%. Further, in assay [2], the inhibition in vivo at 3 mg/kg was 52.4%. For the molecule `COc1ccc(CNc2c(OCCSc3ccccc3)n[nH]c(=O)c2Cl)cc1OC` [Compound 4], in assay [1], the inhibition at 1 µg/mL turned out to be 100% and the inhibition at 0.1 µg/mL stood at 100%.

With `COc1ccc(CNc2c(OCCSc3ccc(C)cc3)n[nH]c(=O)c2Cl)cc1OC` [Compound 28], in assay [1], the inhibition at 1 µg/mL was 100% and the inhibition at 0.1 µg/mL stood at 100%.

For `COc1ccc(CNc2c(OCC[S+]([O-])c3ccc(C)cc3)n[nH]c(=O)c2Cl)cc1OC` (stereo not drawn) [Compound 29], in assay [1], the inhibition at 1 µg/mL stood at 100% and the inhibition at 0.1 µg/mL is 100%.

Consider `COc1ccc(SCCOc2n[nH]c(=O)c(Cl)c2NCc2ccc(OC)c(OC)c2)cc1` [Compound 35], for which, in assay [1], the inhibition at 1 µg/mL was found to be 100% and the inhibition at 0.1 µg/mL came out at 83%. Take `CCN(CC)C(=O)c1ccc(SCCOc2n[nH]c(=O)c(Br)c2NCc2ccc(OC)c(OC)c2)cc1` [Compound 41]: the inhibition at 0.1 µg/mL in assay [1] worked out at 100%.

For `Cc1ccc(SCCOc2n[nH]c(=O)c(Cl)c2NCc2cccnc2)cc1` [Compound 27], in assay [1], the inhibition at 1 µg/mL turned out to be 100% and the inhibition at 0.1 µg/mL turned out to be 80%.

As for `COc1ccc(CNc2c(OCC[S+]([O-])c3ccccc3Cl)n[nH]c(=O)c2Br)cc1OC` (stereo not drawn) [Compound 19, 4-bromo-6-[2-(2-chlorophenylsulfinyl)ethyloxy]-5-(3,4-dimethoxyphenylmethylamino)-3(2H)-pyridazinone], in assay [1], the inhibition at 0.1 µg/mL is 100%. The inhibition in vivo at 3 mg/kg in assay [2] amounted to 33.8%. In the case of `COc1ccc(CNc2c(OCCSc3ccccc3)nn(CN3CCOCC3)c(=O)c2Br)cc1OC` [Compound 12], the inhibition at 0.1 µg/mL in assay [1] was 100%. Also, in assay [2], the inhibition in vivo at 3 mg/kg is 43%. Regarding `COc1ccc(CNc2c(OCCSc3ccc(C)cc3C)n[nH]c(=O)c2Br)cc1OC` [Compound 31, 4-bromo-5-(3,4-dimethoxyphenylmethylamino)-6-[2-(2,4-dimethylphenylthio)ethyloxy]-3(2H)-pyridazinone], in assay [1], the inhibition at 0.1 µg/mL worked out at 100%.

Consider `COc1ccc(CNc2c(OCCS(=O)(=O)c3ccc(F)cc3)n[nH]c(=O)c2Br)cc1OC` [Compound 16, 4-bromo-6-[2-(4-fluorophenylsulfonyl)ethyloxy]-5-(3,4-dimethoxyphenylmethylamino)-3(2H)-pyridazinone], for which, in assay [1], the inhibition at 0.1 µg/mL turned out to be 100%. Moreover, the inhibition in vivo at 3 mg/kg in assay [2] is 35.7%. Regarding `COc1ccc(CNc2c(OCCSc3cccc(Cl)c3)n[nH]c(=O)c2Br)cc1OC` [Compound 20], in assay [1], the inhibition at 1 µg/mL came out at 100% and the inhibition at 0.1 µg/mL was 90%. On the same counts, the results for `COc1ccc(CNc2c(OCC[S+]([O-])c3ccc(C)cc3)n[nH]c(=O)c2Br)cc1OC` (stereo not drawn) [Compound 30, 4-bromo-5-(3,4-dimethoxyphenylmethylamino)-6-[2-(p-tolylsulfinyl)ethyloxy]-3(2H)-pyridazinone] are 100% and 100%. In the case of `COc1ccc(CNc2c(OCCCS(=O)(=O)c3ccccc3)n[nH]c(=O)c2Br)cc1OC` [Compound 11], in assay [1], the inhibition at 0.1 µg/mL is 71%. The same measure, in the same setting: the figure for `COc1ccc(CNc2c(OCCS(=O)(=O)c3ccc(C)cc3C)n[nH]c(=O)c2Br)cc1OC` [Compound 33, 4-bromo-5-(3,4-dimethoxyphenylmethyl-amino)-6-[2-(2,4-dimethylphenylsulfonyl)ethyloxy]-3(2H)-pyridazinone] is 100%; for `COc1ccc(CNc2c(OCCSc3ccc(F)cc3)nn(CN3CCN(C)CC3)c(=O)c2Br)cc1OC` [Compound 17, 4-bromo-5-(3,4-dimethoxyphenylmethylamino)-6-[2-(4-fluorophenylthio)ethyloxy]-2-(4-methylpiperazinlylmethyl)-3(2H)-pyridazinone] it is 100%. For `COc1ccc(CNc2c(OCC[S+]([O-])c3ccc(C#N)cc3)n[nH]c(=O)c2Br)cc1OC` (stereo not drawn) [Compound 38], in assay [1], the inhibition at 0.1 µg/mL was found to be 100%. Also, the inhibition in vivo at 3 mg/kg in assay [2] is 21.8%. Consider `COc1ccc(CNc2c(OCCSc3ccc(Cl)cc3)n[nH]c(=O)c2Cl)cc1OC` [Compound 24], for which, in assay [1], the inhibition at 1 µg/mL worked out at 100% and the inhibition at 0.1 µg/mL was 100%.

As for `COc1ccc(CNc2c(OCCS(=O)(=O)c3ccccc3)n[nH]c(=O)c2Br)cc1OC` [Compound 10, 4-bromo-5-(3,4-dimethoxyphenylmethylamino)-6-[2-(phenylsulfonyl)ethyloxy]-3(2H)-pyridazinone], the inhibition at 0.1 µg/mL in assay [1] amounted to 100%. `COc1ccc(CNc2c(OCCCSc3ccccc3)n[nH]c(=O)c2Br)cc1OC` [Compound 7]: in assay [1], the inhibition at 1 µg/mL turned out to be 100% and the inhibition at 0.1 µg/mL was found to be 74%. Take `COc1ccc(CNc2c(OCCSc3ccccc3Cl)n[nH]c(=O)c2Br)cc1OC` [Compound 18]: the inhibition at 0.1 µg/mL in assay [1] amounted to 100%. Moreover, the inhibition in vivo at 3 mg/kg in assay [2] was determined as 30.1%. For `COc1ccc(CNc2c(OCC[S+]([O-])c3ccccc3)nn(CN3CCOCC3)c(=O)c2Br)cc1OC` (stereo not drawn) [Compound 13], in assay [1], the inhibition at 0.1 µg/mL worked out at 100%. As to `O=c1[nH]nc(OCCCc2ccccc2)c(NCc2cccnc2)c1Br` [Comparative Compound A, reference compound], in assay [1], the inhibition at 1 µg/mL was determined as 100% and the inhibition at 0.1 µg/mL amounted to 84%. The corresponding values for `O=c1[nH]nc(OCCSc2ccc(Cl)cc2)c(NCc2cccnc2)c1Cl` [Compound 23] are 100% and 100%.

Regarding `COc1ccc(CNc2c(OCCSc3ccc(C#N)cc3)n[nH]c(=O)c2Br)cc1OC` [Compound 37], in assay [1], the inhibition at 1 µg/mL amounted to 100% and the inhibition at 0.1 µg/mL worked out at 100%. For the same molecule, in assay [2], the inhibition in vivo at 3 mg/kg is 35.4%. For `COc1ccc(CNc2c(OCC[S+]([O-])c3ccc(C)cc3C)n[nH]c(=O)c2Br)cc1OC` (stereo not drawn) [Compound 32, 4-bromo-5-(3,4-dimethoxyphenylmethyl-amino)-6-[2-(2,4-dimethylphenylsulfinyl)ethyloxy]-3(2H)pyridazinone], the inhibition at 0.1 µg/mL in assay [1] is 100%. Turning to `COc1ccc(CNc2c(OCCSc3ccc([N+](=O)[O-])cc3)n[nH]c(=O)c2Br)cc1OC` [Compound 39, 4-bromo-5-(3,4-dimethoxyphenylmethylamino)-6-[2-(4-nitrophenylthio)ethyloxy]-3(2H)-pyridazinone], in assay [1], the inhibition at 1 µg/mL turned out to be 100% and the inhibition at 0.1 µg/mL turned out to be 93%. Further, in assay [2], the inhibition in vivo at 3 mg/kg was found to be 30.4%. Regarding `COc1ccc(S(=O)(=O)CCOc2n[nH]c(=O)c(Cl)c2NCc2ccc(OC)c(OC)c2)cc1` [Compound 36], in assay [1], the inhibition at 1 µg/mL is 100% and the inhibition at 0.1 µg/mL is 83%.
